This note sets out measurements from patent US20040019060A1, “Sigma receptor ligands and their medical uses” (priority 2000, published 2004).

Data set [1] concerns Human endothelial cells co-cultured with human "feeder" fibroblasts. The data set can be described thus: In vitro angiogenesis assay (pseudocapillary formation, anti-CD31 staining). Format: cell-based. As for the experimental part:
Human endothelial cells co-cultured with human “feeder” fibroblasts on a fibrin matrix in 24 well plates were incubated with ligands at different concentrations. The ligands were added on days 0, 4, 7 and 9 and the experiment terminated on day 11. On each plate, 2 wells served as untreated controls, and 2 received suramin at […] as a standard angiogenesis inhibitor. Each concentration of ligand was assayed in triplicate. On day 11, the wells were washed, and the endothelial cells fixed and stained with anti-CD31 (PECAM-1) antibody and visualised with alkaline phosphatase conjugated second antibody. The cultures were scanned for image analysis and quantitation using a DataCell image analysis system and ImagePro software. Angiogenesis was expressed as the area and/or perimeter of “pseudocapillaries” formed in the gel by the endothelial cells.

The subject of data set [2] is sponge angiogenesis. Put plainly: Mouse sponge angiogenesis model (triple radiotracer). The class given is in vivo, Balb/C mice. The note with it: 30 mg/kg i.p. daily, all time points, FIG. 7a. An excerpt:
(§1) In order to study neoangiogenesis in the absence of tumours, sterile polyether sponges were implanted into animals. This technique, developed in Cambridge, has been widely used to study angiogenesis. We have employed a triple radiotracer technique to study different aspects of the angiogenic process.
Balb/C mice were implanted bilaterally s.c. with sterile 7 mm diameter polyether sponges on days -5, -12 and -16 days prior to termination (5-6 mice per group). The mice were given Lugol's solution (KI) for 3 days prior to injection of radionuclides to prevent uptake of iodine in the thyroid. 24 hours before termination, the mice were injected i.v with […] [131-I] 5′-iodo-2′-deoxyuridine (IudR). One hour prior to termination the mice were injected with 2 XCi 2-deoxy-D-(1-[H3]glucose (DG) and 2 minutes prior to termination 2XCi [Tc-99m]-exametazine (HMPAO).
The IudR uptake reflects cell proliferation (primarily endothelial cells and also a small proportion of the inflammatory cells which provide the angiogenic growth factors); the DG measures cellular glucose metabolism, and the HMPAO gives a measure of blood flow. All can be taken as separate indices of the degree of vascularisation of the sponge implants. Mice were treated i.p. daily with Rimcazole (30 mg/kg) from the day of sponge implantation, or vehicle alone.

Data set [3] relates to sponge angiogenesis. The data set can be described thus: Rat sponge angiogenesis model (125I albumin vascular volume). Format: in vivo, CBH/cbi rats. As for the experimental part:
as §1
CBH/cbi rats were implanted s.c. with sterile 13 mm diameter sponges as above. They were treated i.p. with Rimcazole (30 mg/kg/day) for 14 days from day 0. Five minutes before termination, they were injected with ^125I labelled rat albumin (a macromolecule which, in the short term remains intravascular). The amount of radioiodine in the sponges is an index of vascular volume.

Data set [4] deals with Human mammary carcinoma (MDA MB 468) cells. Put plainly: MTS cell viability/proliferation assay, mammary carcinoma cells. Format: cell-based. As for the experimental part: Human mammary carcinoma (MDA MB 468) cells were obtained from TCC, Manassas, Va., USA; catalogue number HTB-132; cells were grown in accordance with the manufacturer's instructions.
Cell density was checked microscopically at time zero.

Structures can show the parent of a compound that is named as a salt.

In the case of `C[C@@H]1CN(CCCn2c3ccccc3c3ccccc32)C[C@H](C)N1` [Rimcazole, cis-9-[3,5-dimethyl-1-piperazinyl) propyl]carbazole dihydrochloride], the “Inhibition of in vitro angiogenesis” value in data set [1] (4 μM, FIG. 5c) is recorded as “complete inhibition of angiogenesis”. Moreover, in data set [1] (FIG. 4, 5a, 5b angiogenesis area), the “Inhibition of pseudocapillary formation (in vitro angiogenesis)” value is on record as “very effective in inhibiting”. Moreover, the “Cell proliferation (IUdR), cellular metabolism (DG) and blood flow (HMPAO) in sponge implants” value in data set [2] was “reduction”. The “Vascular volume of normal organs (liver and kidney)” value in data set [3] (30 mg/kg/day for 14 days) was “unaffected”. In addition, the “Neoangiogenesis in sponges (vascular volume, radiolabelled albumin)” value in data set [3] (30 mg/kg/day for 14 days after implantation, FIG. 7b) is “reduced”. For the same molecule, the “Effect of sublethal concentration (MTS)” value in data set [4] (5 micromolar, FIG. 10 bottom panel) is recorded as “cytostasis”. Moreover, in data set [4] (10 micromolar, low passage cells, FIG. 9), the “Cell killing (MTS viability)” value is recorded as “no surviving cells remained after 24 hours”.
